Laboratory results: patent publication US11219619B2, “Therapeutic agent for hepatocellular carcinoma” (Eisai R&D Management Co., Ltd., priority 2018, dated 2022)

Columns and labels:
[1] = tested on: SNU-398; experiment: Proliferation of hepatocellular carcinoma cell line SNU-398 (CellTiter Glo-2.0); type: cell-based; details: Homo sapiens, 144 h; SNU-398, cultured for 6 days, 10% FBS
Procedure: (§1) As the human hepatocellular carcinoma cell line, SNU-398, Li-7, Hep3B2.1-7, and HuH-7 were used. In this regard, SNU-398, and Hep3B2.1-7 were obtained from American Type Culture Collection (ATCC), Li-7 was obtained from Cell Resource Center for Biomedical Research, Institute of Development, Aging and Cancer, Tohoku University, and HuH-7 was obtained from JCRB Cell Bank, respectively.
(§2) For each cell line, maintenance culture was performed by using the following medium.
(§3) An RPMI-1640 medium (Wako Pure Chemical Industries, Ltd.) containing 10% fetal bovine serum (FBS) and penicillin/streptomycin […]
(§4) The number of cells in each well after the culture was calculated by measuring the intracellular ATP level with the emission intensity using CellTiter Glo-2.0 (Promega Corporation, catalog number: G9243).
(§5) CellTiter Glo-2.0 was added in an amount of 50 μL into each well, and the mixture was mixed for 10 minutes with a plate mixer. After that, the mixture was allowed to react at room temperature for 10 minutes, and then the luminescence was measured with Multilabel Reader (ARVO X4, PerkinElmer, Inc.) The luminescence value ratio in the presence of a compound A was determined, assuming that the luminescence value in a case where Compound A had not added was set to 100% and the luminescence value in a well where cells had not been present was set to 0%. […]

[2] = tested on: Human-derived hepatocellular carcinoma cell line SNU-398; experiment: Antitumor action against human hepatocellular carcinoma cell line SNU-398 transplanted subcutaneously in nude mice; type: in vivo; details: SNU-398 xenograft
Procedure: (§6) Five nude mice (CAnN.Cg-Foxnlnu/CrlCrlj, female, CHARLES RIVER LABORATORIES JAPAN, INC.) were used in each group, and the antitumor effect in a case where compound A was administered was evaluated.
(§7) Human-derived hepatocellular carcinoma cell line SNU-398 (obtained from ATCC) cells were suspended in a HBSS so that the concentration of the cells was 5×10^7 cells/mL. Into the suspension, Matrigel™ Matrix (Becton, Dickinson and Company, Japan) in the same volume as that of the suspension was added, and the obtained mixture was sufficiently mixed. The mixture in an amount of 0.1 mL was transplanted into the subcutaneous part in the right flank of each mouse, and the mouse was subjected to the antitumor effect evaluation.
(§8) On 9 days after the transplantation, the longest diameter and the short axis of the tumor were measured with an electronic digital caliper (Digimatic™ Caliper, Mitutoyo Corporation). The mice were divided into groups so that the average values of the tumor volumes in the respective groups were nearly equal to each other. In addition, the tumor volume was calculated in accordance with the following equation. Tumor volume (mm^3)=longest diameter (mm)×short axis (mm)×short axis (mm)/2
Compound A was dissolved in purified water so that the concentration of compound A was […] or 2.5 mg/mL.
Compound A was administered orally to each of the mice in the respective groups at a dose of 25 mg/kg or 50 mg/kg once daily for 11 days. In this regard, the volume to be administered was set to 20 mL/kg. The control group was untreated.

[3] = tested on: Li-7; experiment: Proliferation of hepatocellular carcinoma cell line Li-7 (CellTiter Glo-2.0); type: cell-based; details: Homo sapiens, 144 h; Li-7, cultured for 6 days, 10% FBS
Procedure: as §1, §2, §3, §4, §5

[4] = tested on: Human-derived hepatocellular carcinoma cell line Hep3B2.1-7; experiment: Antitumor action against human hepatocellular carcinoma cell line Hep3B2.1-7 transplanted subcutaneously in nude mice; type: in vivo; details: Hep3B2.1-7 xenograft
Procedure: as §6
as §7, with “Hep3B2.1-7” for “SNU-398”, “Hank's Balanced Salt Solution (HBSS)” for “HBSS”, “4×10^7” for “5×10^7”
as §8, with “19” for “9”, “substantially” for “nearly”
Compound A was dissolved in purified water so that the concentration of compound A was 5 mg/mL.
(§9) Compound A was administered to each of the mice in the respective groups at a dose of 100 mg/kg once daily for 5 days. After that, compound A was withdrawn for 2 days, and then administered orally for 4 days. In this regard, the volume to be administered was set to 20 mL/kg, and to the control group, purified water in the same volume was administered.

[5] = tested on: HuH-7; experiment: Proliferation of hepatocellular carcinoma cell line HuH-7 (CellTiter Glo-2.0); type: cell-based; details: Homo sapiens, 144 h; HuH-7, cultured for 6 days, 10% FBS
Procedure: as §1, §2
A DMEM-low glucose medium (Wako Pure Chemical Industries, Ltd.) containing 10% FBS and penicillin/streptomycin […]
as §4, §5

[6] = tested on: Hep3B2.1-7; experiment: Proliferation of hepatocellular carcinoma cell line Hep3B2.1-7 (CellTiter Glo-2.0); type: cell-based; details: Homo sapiens, 144 h; Hep3B2.1-7, cultured for 6 days, 10% FBS
Procedure: as §1, §2
An EMEM medium (Wako Pure Chemical Industries, Ltd.) containing 10% FBS and penicillin/streptomycin […]
as §4, §5

[7] = tested on: Human-derived hepatocellular carcinoma cell line HuH-7; experiment: Antitumor action against human hepatocellular carcinoma cell line HuH-7 transplanted subcutaneously in nude mice; type: in vivo; details: HuH-7 xenograft
Procedure: as §6
as §7, with “HuH-7” for “SNU-398”, “JCRB Cell Bank)” for “ATCC)”, “DMEM medium (Wako Pure Chemical Industries, Ltd.) containing 10% bovine serum” for “HBSS”, “8.0×10^7” for “5×10^7”
as §8, with “11” for “9”
Compound A was dissolved in purified water so that the concentration of compound A was 2.5 mg/mL.
as §9, with “50” for “100”, “3” for “4”

[8] = Day 0 (baseline), 50 mg/kg group

## CNC(=O)n1ccc2cc(Oc3ccnc(NC(=O)c4ccc(C5CCN(CCO)CC5)cc4)c3)c(OCCOC)cc21 [Compound A, 5-((2-(4-(1-(2-hydroxyethyl)piperidin-4-yl)benzamide)pyridin-4-yl)oxy)-6-(2-methoxyethoxy)-N-methyl-1H-indole-1-carboxamide sesquisuccinate]
[1]
  IC50: 0.026 µM
[2]; 25 mg/kg or 50 mg/kg once daily for 11 days, oral
  Increase in the tumor volume: suppressed in a dose-dependent manner
[2]; Day 0 (baseline), 25 mg/kg group
  Tumor volume: 154.5 mm^3
[2]; [8]
  Tumor volume: 153.9 mm^3
[2]; Day 4, 25 mg/kg once daily, oral
  Tumor volume: 516.4 mm^3
[2]; Day 4, 50 mg/kg once daily, oral
  Tumor volume: 443.2 mm^3
[2]; Day 7, 25 mg/kg once daily, oral
  Tumor volume: 942.2 mm^3
[2]; Day 7, 50 mg/kg once daily, oral
  Tumor volume: 779.0 mm^3
[2]; Day 11, 25 mg/kg once daily for 11 days, oral
  Tumor volume: 1280.1 mm^3
[2]; Day 11, 50 mg/kg once daily for 11 days, oral
  Tumor volume: 1066.1 mm^3
[3]
  IC50: 0.063 µM
[4]; Day 0 (baseline), 100 mg/kg group
  Tumor volume: 417.4 mm^3
[4]; Day 3, 100 mg/kg once daily, oral
  Tumor volume: 504.0 mm^3
[4]; Day 7, 100 mg/kg once daily for 5 days, withdrawn 2 days
  Tumor volume: 630.4 mm^3
[4]; Day 11, 100 mg/kg once daily for 5 days, withdrawn 2 days, then 4 days, oral
  Tumor volume: 862.3 mm^3
[5]
  IC50: 0.249 µM
[6]
  IC50: 0.077 µM
[7]; [8]
  Tumor volume: 148.1 mm^3
[7]; Day 3, 50 mg/kg once daily, oral
  Tumor volume: 409.2 mm^3
[7]; Day 7, 50 mg/kg once daily for 5 days, withdrawn 2 days
  Tumor volume: 939.9 mm^3
[7]; Day 10, 50 mg/kg once daily for 5 days, withdrawn 2 days, then 3 days, oral
  Tumor volume: 1400.9 mm^3
